Experimental data published in patent publication US20180298344A1, “Realistic Humanized Model of Disease Matrix Environment for Evaluation of Therapeutic Reversal or Cell Fate” (Yale University, priority 2017, published 2018).

Tested on: human microvascular pericytes (PC) on decellularized healthy lungs
Assay: PC on decellularized control human lung scaffolds, TGF-β1 activation with or without nintedanib: histology, α-SMA IHC, tensile testing
Format: cell-based
Procedure: Lung sections were decellularized as previously described (Sun et al., Am J Physiol Lung Cell Mol Physiol, 2014, 306:L463-475; Petersen et al., Science, 2010, 329:538-541). Briefly, the lung pieces were snap frozen, sliced to 2 mm thickness, and rinsed with PBS containing sodium nitroprusside (SNP). The slices were decellularized with 8 mM CHAPS (Sigma-Aldrich, St Louis, Mo., USA), 1M NaCl, and 25 mM EDTA at 37° C. overnight. The slices were treated with 90 U/mL benzonase nuclease (Sigma) for 1 hour and stored in PBS containing 10% penicillin/streptomycin and 2% Gentamicin at 4° C. until the time of culture. For solubilization, the tissue slices were rinsed with PBS, frozen, and lyophilized. The lyophilized pieces were ground to a fine powder using a tissue grinder and digested with 1 mg/mL pepsin (Sigma) in 0.1 M HCl for 72 hours (DeQuach et al., PLoS One, 2010, 5:e13039).
Samples were fixed in 4% paraformaldehyde for 1 hour, dehydrated, embedded in paraffin, and sectioned into 5μm thick slices. Sections were stained with Masson's Trichrome, picrosirius red, and α-smooth muscle actin (SMA) by the Yale Histology Core Facility.
Decellularized lung samples from control and IPF subjects, as well as polyacrylamide hydrogels of varying crosslinking density, were analyzed using an Instron 5848 with a 10N load cell. Elongation was assessed by cross-head displacement. Strips of 10 mm (length)×1 (width) mm, measured with a digital caliper were affixed to grips and pulled until failure at a strain rate of 1%/sec. For lung samples, parenchymal regions were analyzed, and the pleura was avoided. Hydration of samples with PBS was maintained before and during the mechanical conditioning. Using sample dimensions, engineering stress and strain were calculated using the following equations:
σ=stress, F=Force, A0=initial area, ε=strain, lf=final length, l0=initial length. The Young's Modulus for the tissue was determined by dividing the engineering stress σ, by the engineering strain ε at 20% strain, within the normal range of lung inflation. Mechanical properties of the polyacrylamide hydrogels were also analyzed using a modified model of the Hertz equation using a custom made apparatus (FIG. 3) (Lauridsen et al., Technology, 2014, 2:133).
For short term (7 day) differentiation studies, PC (passage 3-7) were seeded on healthy or IPF lung tissue slices, polyacrylamide hydrogels, or 25 mm glass coverslips (VWR) at 100×10^3 cells per sample and activated with control media (non-activated), or 1 ng/mL TGF-β1 (PeproTech, Rocky Hill, N.J., USA) for 7 days (18, 19). For bleomycin activation, the cells were activated with 1 μg/mL bleomycin sulfate (Cayman Chemical, Ann Arbor, Mich.) for 1 day and the media was replaced with non-activated media for the remaining 6 days (Sava et al., Microcirculation, 2015, 22:54-67; Sterling et al., J Bio Chem, 1983, 258:14438-14444). TGF-β1 and bleomycin concentrations were based on reports consistent with activation of fibroblasts (Sava et al., Microcirculation, 2015, 22:54-67; Maroni and Davis, Bio Reprod, 2012, 87:127). Treatment with CCG-1423 (Sigma) was performed at day 0 for the full 7 days, and labeled as early treatment, or at day 7 and performed for 7 days, and labeled as late treatment. […]

Molecule	matrix density and collagen I content (nintedanib, TGF-β1-activated PC on decellularized healthy lung)	reduction in the number of PC expressing α-SMA (nintedanib, TGF-β1-activated PC on decellularized healthy lung, IHC, P<0.0001) [%]	elastic modulus of the scaffold (nintedanib, P=0.44 compared with control lung, P=0.001 compared with TGF-β1 without nintedanib)	ECM density and collagen I crosslinking (28 days of TGF-β1, Masson's trichrome and Picosirius red staining)	increase in the elastic modulus of the scaffold (28 days of TGF-β1, PC on decellularized healthy lung, P=0.001) [fold]
COC(=O)c1ccc2c(c1)NC(=O)/C2=C(\Nc1ccc(N(C)C(=O)CN2CCN(C)CC2)cc1)c1ccccc1 [nintedanib]	reduction	90.1	reversion of the elastic modulus to baseline levels	–	–
TGF-β1: transforming growth factor (TGF)-β1, fibrotic activator, used at 1 ng/mL	–	–	–	increased	8.6
